These results are taken from patent US20230257354A1, “NOVEL HETEROCYCLIC COMPOUNDS” (Hoffmann-La Roche Inc., priority 2020, published 2023).

The subject of this experiment is Acinetobacter baumannii ATCC17978. Briefly: Antimicrobial susceptibility testing, 90% growth inhibitory concentration (IC90) determination, ATCC17978. The class given is cell-based. The following applies: Iso-Sensitest broth, OD 600 nm over 16 h, 35±2° C., read-out: ATCC 17978 IC90. The method, then: Antimicrobial Susceptibility Testing: 90% Growth Inhibitory Concentration (IC90) Determination The in vitro antimicrobial activity of the compounds was determined according to the following procedure: The assay used a 10-points Iso-Sensitest broth medium to measure quantitatively the in vitro activity of the compounds against Acinetobacter baumannii ATCC17978 or ATCC17961. Stock compounds in DMSO were serially twofold diluted (e.g. range from 50 to 0.097 μM final concentration) in 384 wells microtiter plates and inoculated with 49 μl the bacterial suspension in Iso-Sensitest medium to have a final cell concentration of ˜5×10^(5) CFU/ml in a final volume/well of 50 ul/well. Microtiter plates were incubated at 35±2° C. Bacterial cell growth was determined with the measurement of optical density at X=600 nm each 20 minutes over a time course of 16 h. Growth inhibition was calculated during the logarithmic growth of the bacterial cells with determination of the concentration inhibiting 50% (IC50) and 90% (IC90) of the growth. Table 1 provides the 90% growth inhibitory concentrations (IC90) in micromoles per liter of the compounds of present invention obtained against the strain Acinetobacter baumannii ATCC17978.

A word on the IC90: it is the concentration at which the effect reaches the 90% level. Regarding `Cc1cc(NC(=O)c2ncc(-c3ccc(OCC#N)c(F)c3F)n2C)ccc1C(=O)NCCNC(=O)C1(O)CCNCC1` [Example B14, N-[2-[[4-[[5-[4-(cyanomethoxy)-2,3-difluoro-phenyl]-1-methyl-imidazole-2-carbonyl]amino]-2-methyl-benzoyl]amino]ethyl]-4-hydroxy-piperidine-4-carboxamide;formic acid], the IC90 was 990 nM. Turning to `Cn1c(-c2ccc(OCC#N)c(F)c2F)cnc1C(=O)Nc1ccc(C(=O)NCCNC(=O)C2CCNCC2)c(Cl)c1` [Example B15, N-[2-[[2-chloro-4-[[5-[4-(cyanomethoxy)-2,3-difluoro-phenyl]-1-methyl-imidazole-2-carbonyl]amino]benzoyl]amino]ethyl]piperidine-4-carboxamide;2,2,2-trifluoroacetic acid], the IC90 was found to be 360 nM. To `Cn1c(-c2ccc(OCC#N)c(F)c2F)cnc1C(=O)Nc1ccc(C(=O)NCCNC(=O)C2(O)CCNCC2)c(Cl)c1` [Example B16, N-[2-[[2-chloro-4-[[5-[4-(cyanomethoxy)-2,3-difluoro-phenyl]-1-methyl-imidazole-2-carbonyl]amino]benzoyl]amino]ethyl]-4-hydroxy-piperidine-4-carboxamide;2,2,2-trifluoroacetic acid] belongs 350 nM. To `COc1ccc(-c2cnc(C(=O)Nc3ccc(C(=O)NC4CN(C(=O)CN)C4)c(Cl)c3)n2C)c(F)c1F` [Example B17, N-[4-[[1-(2-aminoacetyl)azetidin-3-yl]carbamoyl]-3-chloro-phenyl]-5-(2,3-difluoro-4-methoxy-phenyl)-1-methyl-imidazole-2-carboxamide;formic acid] belongs 84 nM; to `COc1ccc(-c2cnc(C(=O)Nc3ccc(C(=O)NCC4CN(C(=O)CN)C4)c(Cl)c3)n2C)c(F)c1F` [Example B18, N-[4-[[1-(2-aminoacetyl)azetidin-3-yl]methylcarbamoyl]-3-chloro-phenyl]-5-(2,3-difluoro-4-methoxy-phenyl)-1-methyl-imidazole-2-carboxamide;formic acid], 240 nM; to `COc1ccc(-c2cnc(C(=O)Nc3ccc(C(=O)N[C@H]4C[C@@H](C(=O)NCCN)C4)c(Cl)c3)n2C)c(F)c1F` [Example B19, N-[4-[[3-(2-aminoethylcarbamoyl)cyclobutyl]carbamoyl]-3-chloro-phenyl]-5-(2,3-difluoro-4-methoxy-phenyl)-1-methyl-imidazole-2-carboxamide;formic acid], 160 nM. To `COc1ccc(-c2cnc(C(=O)Nc3ccc(C(=O)N[C@H]4C[C@@H](C(=O)N5CC(N)C5)C4)c(Cl)c3)n2C)c(F)c1F` [Example B20, N-[4-[[3-(3-aminoazetidine-1-carbonyl)cyclobutyl]carbamoyl]-3-chloro-phenyl]-5-(2,3-difluoro-4-methoxy-phenyl)-1-methyl-imidazole-2-carboxamide;formic acid] belongs 210 nM; to `COc1ccc(-c2cnc(C(=O)Nc3ccc(C(=O)N[C@H]4C[C@@H](C(=O)N[C@H]5C[C@@H](N)C5)C4)c(Cl)c3)n2C)c(F)c1F` [Example B21, N-[4-[[3-[(3-aminocyclobutyl)carbamoyl]cyclobutyl]carbamoyl]-3-chloro-phenyl]-5-(2,3-difluoro-4-methoxy-phenyl)-1-methyl-imidazole-2-carboxamide;2,2,2-trifluoroacetic acid], 98 nM; to `CCc1cc(NC(=O)c2ncc(-c3ccc(OC)c(F)c3F)n2C)ccc1C(=O)N[C@H]1C[C@@H](C(=O)NCCN)C1` [Example B22, N-[4-[[3-(2-aminoethylcarbamoyl)cyclobutyl]carbamoyl]-3-ethyl-phenyl]-5-(2,3-difluoro-4-methoxy-phenyl)-1-methyl-imidazole-2-carboxamide;2,2,2-trifluoroacetic acid], 320 nM. Regarding `CCc1cc(NC(=O)c2ncc(-c3ccc(OC)c(F)c3F)n2C)ccc1C(=O)NC1CN(C(=O)CN)C1` [Example B23, N-[4-[[1-(2-aminoacetyl)azetidin-3-yl]carbamoyl]-3-ethyl-phenyl]-5-(2,3-difluoro-4-methoxy-phenyl)-1-methyl-imidazole-2-carboxamide;formic acid], the IC90 was 300 nM. Regarding `Cc1cc(NC(=O)c2ncc(-c3ccc(OCC#N)c(F)c3F)n2C)ccc1C(=O)NCCNC(=O)[C@H]1C[C@@](C)(O)CN1` [Example B24, 5-[4-(cyanomethoxy)-2,3-difluoro-phenyl]-N-[4-[2-[[(2R,4R)-4-hydroxy-4-methyl-pyrrolidine-2-carbonyl]amino]ethylcarbamoyl]-3-methyl-phenyl]-1-methyl-imidazole-2-carboxamide;formic acid], the IC90 was determined as 1000 nM. To `CC[C@]1(O)CN[C@@H](C(=O)NCCNC(=O)c2ccc(NC(=O)c3ncc(-c4ccc(OCC#N)c(F)c4F)n3C)cc2C)C1` [Example B25, 5-[4-(cyanomethoxy)-2,3-difluoro-phenyl]-N-[4-[2-[[(2R,4R)-4-ethyl-4-hydroxy-pyrrolidine-2-carbonyl]amino]ethylcarbamoyl]-3-methyl-phenyl]-1-methyl-imidazole-2-carboxamide;formic acid] belongs 870 nM; to `COc1ccc(-c2cnc(C(=O)Nc3ccc(C(=O)NCCNC(=O)[C@H]4C[C@@](C)(O)CN4)c(C)c3)n2C)c(F)c1F` [Example B26, 5-(2,3-difluoro-4-methoxy-phenyl)-N-[4-[2-[[(2R,4R)-4-hydroxy-4-methyl-pyrrolidine-2-carbonyl]amino]ethylcarbamoyl]-3-methyl-phenyl]-1-methyl-imidazole-2-carboxamide;formic acid], 1200 nM. In the case of `CC[C@]1(O)CN[C@@H](C(=O)NCCNC(=O)c2ccc(NC(=O)c3ncc(-c4ccc(OC)c(F)c4F)n3C)cc2C)C1` [Example B27, 5-(2,3-difluoro-4-methoxy-phenyl)-N-[4-[2-[[(2R,4R)-4-ethyl-4-hydroxy-pyrrolidine-2-carbonyl]amino]ethylcarbamoyl]-3-methyl-phenyl]-1-methyl-imidazole-2-carboxamide;formic acid], the IC90 was found to be 1100 nM.

Consider `COc1ccc(-c2cnc(C(=O)Nc3ccc(C(=O)NCCNC(=O)N[C@@H]4CNC[C@H]4O)c(C)c3)n2C)c(F)c1F` [Example B28, 5-(2,3-difluoro-4-methoxy-phenyl)-N-[4-[2-[[(3R,4R)-4-hydroxypyrrolidin-3-yl]carbamoylamino]ethylcarbamoyl]-3-methyl-phenyl]-1-methyl-imidazole-2-carboxamide;formic acid], for which the IC90 was 510 nM. To `COc1ccc(-c2cnc(C(=O)Nc3ccc(C(=O)NCCNC(=O)N[C@H]4CNC[C@@H]4O)c(C)c3)n2C)c(F)c1F` [Example B29, 5-(2,3-difluoro-4-methoxy-phenyl)-N-[4-[2-[[(3S,4S)-4-hydroxypyrrolidin-3-yl]carbamoylamino]ethylcarbamoyl]-3-methyl-phenyl]-1-methyl-imidazole-2-carboxamide;formic acid] belongs 610 nM. To `Cc1cc(NC(=O)c2ncc(-c3ccc(OCC#N)c(F)c3F)n2C)ccc1C(=O)NCCNC(=O)N[C@@H]1CNC[C@H]1O` [Example B30, 5-[4-(cyanomethoxy)-2,3-difluoro-phenyl]-N-[4-[2-[[(3R,4R)-4-hydroxypyrrolidin-3-yl]carbamoylamino]ethylcarbamoyl]-3-methyl-phenyl]-1-methyl-imidazole-2-carboxamide;formic acid] belongs 650 nM. As to `Cc1cc(NC(=O)c2ncc(-c3ccc(OCC#N)c(F)c3F)n2C)ccc1C(=O)NCCNC(=O)N[C@H]1CNC[C@@H]1O` [Example B31, 5-[4-(cyanomethoxy)-2,3-difluoro-phenyl]-N-[4-[2-[[(3S,4S)-4-hydroxypyrrolidin-3-yl]carbamoylamino]ethylcarbamoyl]-3-methyl-phenyl]-1-methyl-imidazole-2-carboxamide;formic acid], the IC90 came out at 740 nM. Under `Cn1c(-c2ccc(OCC#N)c(F)c2F)cnc1C(=O)Nc1ccc(C(=O)NCCNC(=O)[C@@H]2CCNC[C@@H]2O)c(Cl)c1` [Example B32, (3R,4R)-N-[2-[[2-chloro-4-[[5-[4-(cyanomethoxy)-2,3-difluoro-phenyl]-1-methyl-imidazole-2-carbonyl]amino]benzoyl]amino]ethyl]-3-hydroxy-piperidine-4-carboxamide;formic acid] stands 1200 nM.

`Cn1c(-c2ccc(OCC#N)c(F)c2F)cnc1C(=O)Nc1ccc(C(=O)NCCNC(=O)[C@H]2CCNC[C@H]2O)c(Cl)c1` [Example B33, (3S,4S)-N-[2-[[2-chloro-4-[[5-[4-(cyanomethoxy)-2,3-difluoro-phenyl]-1-methyl-imidazole-2-carbonyl]amino]benzoyl]amino]ethyl]-3-hydroxy-piperidine-4-carboxamide;formic acid]: the IC90 came out at 1100 nM. For the compound `Cn1c(-c2ccc(OCC#N)c(F)c2F)cnc1C(=O)Nc1ccc(C(=O)NCCNC(=O)[C@@H]2CCNC[C@H]2O)c(Cl)c1` [Example B34, (3S,4R)-N-[2-[[2-chloro-4-[[5-[4-(cyanomethoxy)-2,3-difluoro-phenyl]-1-methyl-imidazole-2-carbonyl]amino]benzoyl]amino]ethyl]-3-hydroxy-piperidine-4-carboxamide;formic acid], the IC90 worked out at 1700 nM.
